Data reported in patent US20040116420A1 (priority 2001, published 2004).

How the values were obtained:
HCMV = test: Antiviral activity 2, plaque formation in HEL cells; assay type: cell-based, CMV; conditions: Human betaherpesvirus 5, 336 h, 14 days
Experimental: (§1) An Assay Method for Antiviral Activity 2
(§2) The HEL cells were sowed on a 48-well plate and then cultured overnight. The culture supernatant was removed, and 100 μl of 2% FBS-DMEM containing 40 Plaque-forming units of HSV-1, HSV-2, VZV, or CMV was added. A viral solution Was removed 1 hour later, and 500 μl of 2% FBS-DMEM containing 0.5% methylcellulose comprising 50, 25, 12.5, 6.3, 3.2, or 1.6 μM of the test compound was added. In this case, a substance to which 2% FBS-DMEM containing 0.5% methylcellulose not comprising any test compound had been added was designated as a control. In the case of HSV-1, HSV-2, or VZV, incubation was carried out in the presence of 5% CO2 at 37° C. for 3 days. In the case of CMV, incubation was carried out under the same conditions for 14 days. After they were immobilized on formalin and stained with bromophenol blue, the amount of plaque formed was counted, and the ratio of plaque formation of the drug-containing reaction system relative to the control was determined. The concentration of the drug with which the ratio of plaque formation reaches 50% was calculated and determined to be IC50. Concerning HSV-1, an aciclovir-resistant thymidine kinase variant and a DNA polymerase variant were examined in addition to a general aciclovir-sensitive strain.

HSV2 = test: as above; assay type: cell-based, HSV-2; conditions: Human alphaherpesvirus 2, 72 h, 3 days
Experimental: as §1, §2

[1] = tested on: HSV1 Thimidine kinase variant; test: as above; assay type: cell-based, HSV-1; conditions: Human alphaherpesvirus 1, HEL, 72 h, read-out: Antiviral activity: IC50, HSV1 Thimidine kinase variant
Experimental: as §1, §2

[2] = tested on: HSV1 DNA polymerase variant; test: as above; assay type: cell-based, HSV-1; conditions: Human alphaherpesvirus 1, HEL, 72 h, read-out: Antiviral activity: IC50, HSV1 DNA polymerase variant
Experimental: as §1, §2

HSV1 Sensitive strain = test: as above; assay type: cell-based, HSV-1; conditions: Human alphaherpesvirus 1, 72 h, 3 days
Experimental: as §1, §2

Human plasma stability = assay type: in vitro ADME
Experimental: An Assay Method for Human Plasma Stability Human plasma was thawed, 200 μl each thereof was placed in each cell of a 96-well plate immediately thereafter, and 4 μl of solution of each test compound in 1 mM DMF was added thereto. A microplate reader for fluorescence absorption was used to assay changes in fluorescence, and half life was determined based on the changes.

HSV-1 = test: Inhibition of virus multiplication through combined use, plaque formation in Vero cells; assay type: cell-based; conditions: 3 days
Experimental: Activity of Inhibiting Virus Multiplication Through Combined use
The Vero cells were sowed on a 48-well plate and then cultured overnight. The culture supernatant was removed, and 100 μl of 2% FBS-DMEM containing 40 Plaque-forming units of HSV-1 was added. A viral solution was removed 1 hour later, And 500 μl of 2% FBS-DMEM containing 0.5% methylcellulose comprising the test Compound was added. In this case, a substance to which 2% FBS-DMEM containing 0.5% methylcellulose not comprising any test compound had been added was designated as a control. They were incubated in the presence of 5% CO2 at 37° C. for 3 days. After they were immobilized on formalin and stained with bromophenol blue, the Amount of plaque formed was counted, and the ratio of plaque formation of the drug-containing reaction system relative to the control was determined. Examination was carried out using the Compound No.18 in combination with aciclovir, the Compound No. 18 in combination with penciclovir, and the Compound No.18 in combination with ganciclovir. In this examination, 25, 12.5, 6.3, 3.2, 1.6, or 0 μM of the Compound No. 18 was used, and 3.2, 1.6, 0.8, 0.4, 0.2, or 0 μM of aciclovir, penciclovir, or ganciclovir was used.

## Cc1c(NC(=O)OC(C)(C)C)ccc2nc(NC(C)(C)C(=O)N(C)CCc3ccccn3)oc(=O)c12 [Compound No.18, (5-methyl-2-{1-methyl-1-[methyl-(2-pyridin-2-yl-ethyl)-carbamoyl]-ethylamino}-4-oxo-4H-benzo[d][1,3]oxazin-6-yl)-carbamic Acid Tert-Butyl Ester]
HCMV
  IC50: 11.1 µM
HSV2
  IC50: 12.5 µM
[1]
  IC50: 22.5 µM
[2]
  IC50: 17.1 µM
HSV1 Sensitive strain
  IC50: 10 µM
Human plasma stability
  half-life at 19.6 μM: 2.83 h
HSV-1; in combination with aciclovir
  Inhibition of multiplication of HSV-1 through combined use: synergistically inhibited
HSV-1; in combination with ganciclovir
  Inhibition of multiplication of HSV-1 through combined use: synergistically inhibited
HSV-1; in combination with penciclovir
  Inhibition of multiplication of HSV-1 through combined use: synergistically inhibited
